Reference: ChEMBL document CHEMBL5634141 (Eur J Med Chem, 2023)
Activity calls are given as the source filed them. The rule behind the calls is not given here.

Experiments:
[1] = AUC (0 to infinity) in ICR mouse at 30 mg/kg, ip measured after 24 hrs by LC-MS/MS analysis; type: ADME, organism-based; settings: in vivo
[2] = system: von Hippel-Lindau disease tumor suppressor/GTPase KRas (Homo sapiens), P01116+P40337 [G12C]; experiment: PROTAC activity at VHL/KRAS G12C mutant in human MIA PaCa-2 cells assessed as inhibition of Akt phosphorylation at 100 nM incubated for 1 to 8 days by Western blotting analysis; type: cell-based; settings: time 1-8 day
[3] = system: NCI-H358; experiment: Antiproliferative activity against human NCI-H358 cells expressing KRAS G12C mutant assessed as relative cell viability at 30 nM incubated for 72 hrs in presence of infigratinib by CCK-8 assay; type: functional; settings: read-out: Activity
[4] = system: NCI-H358; experiment: Synergistic antiproliferative activity against human NCI-H358 cells expressing KRAS G12C mutant assessed as combination index incubated for 72 hrs in presence of linsitinib by CCK-8 assay; type: functional
[5] = system: NCI-H358; experiment: Synergistic antiproliferative activity against human NCI-H358 cells expressing KRAS G12C mutant assessed as combination index at 30 nM incubated for 72 hrs in presence of naporafenib by CCK-8 assay; type: functional
[6] = system: von Hippel-Lindau disease tumor suppressor/GTPase KRas (Homo sapiens), P01116+P40337 [G12C]; experiment: PROTAC activity at VHL/KRAS G12C mutant in human MIA PaCa-2 cells assessed as induction of protein degradation at 100 nM incubated for 48 hrs followed by compound washout and measured after 48 hrs by Western blotting analysis; type: cell-based
[7] = system: von Hippel-Lindau disease tumor suppressor/GTPase KRas (Homo sapiens), P01116+P40337 [G12C]; experiment: PROTACactivity at VHL/KRAS G12C mutant in human NCI-H358 cells assessed as induction of protein degradation by measuring maximal efficacy incubated for 72 hrs by Western blot analysis relative to control; type: cell-based
[8] = system: NCI-H358; experiment: Antiproliferative activity against human NCI-H358 cells expressing KRAS G12C mutant assessed as relative cell viability at 30 nM incubated for 72 hrs in presence of crizotinib by CCK-8 assay; type: functional; settings: read-out: Activity
[9] = system: von Hippel-Lindau disease tumor suppressor/GTPase KRas (Homo sapiens), P01116+P40337 [G12C]; experiment: PROTAC activity at VHL/KRAS G12C mutant in human MIA PaCa-2 cells assessed as induction of protein degradation at 300 nM incubated for 24 hrs by Western blotting analysis relative to control; type: cell-based
[10] = system: NCI-H358; experiment: Induction of cell cycle arrest in human NCI-H358 cells assessed as accumulation of cells at G2/M phase incubated for 48 hrs by propidium iodide staining based flow cytometry analysis; type: functional; settings: dose 30-300 nM
[11] = system: NCI-H358; experiment: Induction of apoptosis in human NCI-H358 cells assessed as early apoptotic cells at 300 nM incubated for 48 hrs by Annexin V-FITC staining based flow cytometry analysis (reference value: 1.60 %); type: functional
[12] = system: Calu-1; experiment: Antiproliferative activity against human Calu-1 cells expressing KRAS G12C mutant assessed as relative cell viability at 30 nM incubated for 72 hrs in presence of crizotinib by CCK-8 assay; type: functional; settings: read-out: Activity
[13] = system: von Hippel-Lindau disease tumor suppressor/GTPase KRas (Homo sapiens), P01116+P40337 [G12C]; experiment: PROTAC activity at VHL/KRAS G12C mutant in human NCI-H358 cells assessed as induction of protein degradation at 100 nM incubated for 1 to 8 days by Western blotting analysis; type: cell-based; settings: time 1-8 day
[14] = system: MIA PaCa-2; experiment: Antitumor activity against human MIA PaCa-2 cells xenografted in BALB/c nude mouse assessed as reduction in percentage of KRAS-positive cells at 10 to 30 mg/kg, ip administered for 16 days by immunohistochemical staining analysis; type: functional, organism-based; settings: dose 10-30 mg/kg, time 16.0 day
[15] = system: Calu-1; experiment: Antiproliferative activity against human Calu-1 cells expressing KRAS G12C mutant assessed as relative cell viability at 30 nM incubated for 72 hrs in presence of infigratinib by CCK-8 assay; type: functional; settings: read-out: Activity
[16] = system: NCI-H358; experiment: Inhibition of colony formation in human NCI-H358 cells expressing KRAS G12C mutant assessed as reduction in cell number at 30 nM incubated for 14 days in presence of AZD4573 by crystal violet staining based analysis; type: functional; settings: time 14.0 day
[17] = system: Calu-1; experiment: Antiproliferative activity against human Calu-1 cells expressing KRAS G12C mutant assessed as relative cell viability at 30 nM incubated for 72 hrs by CCK-8 assay; type: functional; settings: Calu-1, read-out: Activity
[18] = system: SW837; experiment: Antiproliferative activity against human SW837 cells expressing KRAS G12C mutant assessed as relative cell viability at 30 nM incubated for 72 hrs in presence of MK-2206 by CCK-8 assay; type: functional; settings: read-out: Activity
[19] = system: NCI-H358; experiment: Synergistic antiproliferative activity against human NCI-H358 cells expressing KRAS G12C mutant assessed as combination index at 30 nM incubated for 72 hrs in presence of MK-2206 by CCK-8 assay; type: functional
[20] = system: MIA PaCa-2; experiment: Inhibition of colony formation in human MIA PaCa-2 cells expressing KRAS G12C mutant assessed as reduction in cell number at 30 nM incubated for 14 days in presence of AZD4573 by crystal violet staining based analysis; type: functional; settings: time 14.0 day
[21] = system: SW837; experiment: Antiproliferative activity against human SW837 cells expressing KRAS G12C mutant assessed as relative cell viability at 30 nM incubated for 72 hrs in presence of infigratinib by CCK-8 assay; type: functional; settings: read-out: Activity
[22] = system: MIA PaCa-2; experiment: Induction of apoptosis in human MIA PaCa-2 cells assessed as early apoptotic cells at 300 nM incubated for 48 hrs by Annexin V-FITC staining based flow cytometry analysis (reference value: 1.55 %); type: functional

C=CC(=O)N1CCN(c2nc(=O)n(-c3c(C)ccnc3C(C)C)c3nc(-c4c(F)cccc4OCC4CCN(CCCC(=O)N[C@H](C(=O)N5C[C@H](O)C[C@H]5C(=O)NCc5ccc(-c6scnc6C)cc5)C(C)(C)C)CC4)c(F)cc23)[C@@H](C)C1
AUC(0-inf) [1]: 21100 ng·h/mL
Activity [2]: Active
viability at 0.03 µM [3]: 0.38%
CI [4]: <1
CI [5]: <1
Activity [6]: inactive
Emax [7]: > 95%
viability at 0.03 µM [8]: 0.43%
Activity [9]: 100%
Activity [10]: Dose-Dependent Effect
Activity [11]: 4.06%
viability at 0.03 µM [12]: 0.31%
Activity [13]: Active
Activity [14]: Active
viability at 0.03 µM [15]: 0.36%
inhibition [16]: Active
viability at 0.03 µM [17]: 77%
viability at 0.03 µM [18]: 0.34%
CI [19]: <1
inhibition [20]: Active
viability at 0.03 µM [21]: 0.34%
Activity [22]: 9.58%
